Measurements as given in PubChem BioAssay (NCI).
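Five compound concentrations were applied to cells in 96-well plates for 48 hours; endpoints were derived by simple linear interpolation of the resulting dose-response curve. GI50 is the concentration that inhibits growth by half. Definition used: TGI = concentration required for complete inhibition of growth.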

Key:
Assay in all cases: NCI-60 cell line screen, 48 h
UO-31 renal = test system: UO-31 renal
CCRF-CEM leukemia = test system: CCRF-CEM leukemia
T-47D breast = test system: T-47D breast
UACC-257 melanoma = test system: UACC-257 melanoma
SK-MEL-2 melanoma = test system: SK-MEL-2 melanoma
HL-60(TB) leukemia = test system: HL-60(TB) leukemia
KM12 colon = test system: KM12 colon
PC-3 prostate = test system: PC-3 prostate
NCI-H460 lung = test system: NCI-H460 lung
NCI-H522 lung = test system: NCI-H522 lung
OVCAR-8 ovarian = test system: OVCAR-8 ovarian
SK-OV-3 ovarian = test system: SK-OV-3 ovarian
SNB-19 CNS = test system: SNB-19 CNS
786-0 renal = test system: 786-0 renal
MDA-MB-435 = test system: MDA-MB-435
DU-145 prostate = test system: DU-145 prostate
ACHN renal = test system: ACHN renal
HS 578T breast = test system: HS 578T breast
A498 renal = test system: A498 renal
SK-MEL-5 melanoma = test system: SK-MEL-5 melanoma
MDA-MB-231 breast = test system: MDA-MB-231 breast
SF-268 CNS = test system: SF-268 CNS
MOLT-4 leukemia = test system: MOLT-4 leukemia
OVCAR-4 ovarian = test system: OVCAR-4 ovarian
K-562 leukemia = test system: K-562 leukemia
SN12C renal = test system: SN12C renal
OVCAR-5 ovarian = test system: OVCAR-5 ovarian
HT29 colon = test system: HT29 colon
BT-549 breast = test system: BT-549 breast
SNB-75 CNS = test system: SNB-75 CNS
LOX IMVI melanoma = test system: LOX IMVI melanoma
MCF7 breast = test system: MCF7 breast
A549 NSCLC = test system: A549 NSCLC
SF-295 CNS = test system: SF-295 CNS
CAKI-1 renal = test system: CAKI-1 renal
HOP-92 NSCLC = test system: HOP-92 NSCLC
RPMI-8226 leukemia = test system: RPMI-8226 leukemia
RXF 393 renal = test system: RXF 393 renal
MALME-3M melanoma = test system: MALME-3M melanoma
M14 melanoma = test system: M14 melanoma
NCI/ADR-RES ovarian = test system: NCI/ADR-RES ovarian
COLO 205 colon = test system: COLO 205 colon
HCT-116 colon = test system: HCT-116 colon
SF-539 CNS = test system: SF-539 CNS
SR leukemia = test system: SR leukemia
NCI-H226 lung = test system: NCI-H226 lung
UACC-62 melanoma = test system: UACC-62 melanoma
NCI-H23 lung = test system: NCI-H23 lung
U251 CNS = test system: U251 CNS
TK-10 renal = test system: TK-10 renal
HCC-2998 colon = test system: HCC-2998 colon
SK-MEL-28 melanoma = test system: SK-MEL-28 melanoma
SW-620 colon = test system: SW-620 colon
HCT-15 colon = test system: HCT-15 colon
EKVX NSCLC = test system: EKVX NSCLC
HOP-62 NSCLC = test system: HOP-62 NSCLC
OVCAR-3 ovarian = test system: OVCAR-3 ovarian
IGROV1 ovarian = test system: IGROV1 ovarian

## CCOC(=O)C(=Cc1ccc(Br)cc1)C(=O)OCC
UO-31 renal
  GI50: 1570 nM
  TGI: 3340 nM
CCRF-CEM leukemia
  GI50: 838 nM
  TGI: 7340 nM
T-47D breast
  GI50: 2120 nM
  TGI: 6000 nM
UACC-257 melanoma
  GI50: 1880 nM
  TGI: 4150 nM
SK-MEL-2 melanoma
  GI50: 2020 nM
  TGI: 4390 nM
HL-60(TB) leukemia
  GI50: 1630 nM
  TGI: 7530 nM
KM12 colon
  GI50: 1760 nM
  TGI: 3660 nM
PC-3 prostate
  GI50: 1860 nM
  TGI: 5960 nM
NCI-H460 lung
  GI50: 2370 nM
  TGI: 5730 nM
NCI-H522 lung
  GI50: 1750 nM
  TGI: 4220 nM
OVCAR-8 ovarian
  GI50: 2360 nM
  TGI: 6790 nM
SK-OV-3 ovarian
  GI50: 5410 nM
  TGI: 17000 nM
SNB-19 CNS
  GI50: 2470 nM
  TGI: 7550 nM
786-0 renal
  GI50: 2010 nM
  TGI: 3850 nM
MDA-MB-435
  GI50: 2160 nM
  TGI: 6910 nM
DU-145 prostate
  GI50: 1680 nM
  TGI: 3070 nM
ACHN renal
  GI50: 2090 nM
  TGI: 4450 nM
HS 578T breast
  GI50: 4030 nM
  TGI: > 19600 nM
A498 renal
  GI50: 2180 nM
  TGI: 5140 nM
SK-MEL-5 melanoma
  GI50: 1650 nM
  TGI: 3120 nM
MDA-MB-231 breast
  GI50: 2080 nM
  TGI: 5370 nM
SF-268 CNS
  GI50: 1910 nM
  TGI: 3950 nM
MOLT-4 leukemia
  GI50: 2940 nM
  TGI: 20200 nM
OVCAR-4 ovarian
  GI50: 3060 nM
  TGI: 10400 nM
K-562 leukemia
  GI50: 2490 nM
  TGI: > 100000 nM
SN12C renal
  GI50: 2030 nM
  TGI: 4210 nM
OVCAR-5 ovarian
  GI50: 2660 nM
  TGI: 6520 nM
HT29 colon
  GI50: 2250 nM
  TGI: 5860 nM
BT-549 breast
  GI50: 1490 nM
  TGI: 3110 nM
SNB-75 CNS
  GI50: 1590 nM
  TGI: 3170 nM
LOX IMVI melanoma
  GI50: 793 nM
  TGI: 2240 nM
MCF7 breast
  GI50: 1660 nM
  TGI: 6670 nM
A549 NSCLC
  GI50: 2280 nM
  TGI: 5830 nM
SF-295 CNS
  GI50: 2740 nM
  TGI: 9360 nM
CAKI-1 renal
  GI50: 1760 nM
  TGI: 5590 nM
HOP-92 NSCLC
  GI50: 1450 nM
  TGI: 4800 nM
RPMI-8226 leukemia
  GI50: 270 nM
  TGI: 1320 nM
RXF 393 renal
  GI50: 1150 nM
  TGI: 2550 nM
MALME-3M melanoma
  GI50: 2320 nM
  TGI: 5590 nM
M14 melanoma
  GI50: 1800 nM
  TGI: 3680 nM
NCI/ADR-RES ovarian
  GI50: 2780 nM
  TGI: > 20400 nM
COLO 205 colon
  GI50: 1890 nM
  TGI: 3940 nM
HCT-116 colon
  GI50: 1400 nM
  TGI: 2920 nM
SF-539 CNS
  GI50: 1720 nM
  TGI: 3130 nM
SR leukemia
  GI50: 2410 nM
  TGI: > 23100 nM
NCI-H226 lung
  GI50: 1960 nM
  TGI: 5500 nM
UACC-62 melanoma
  GI50: 1390 nM
  TGI: 3290 nM
NCI-H23 lung
  GI50: 2320 nM
  TGI: 5700 nM
U251 CNS
  GI50: 1430 nM
  TGI: 2980 nM
TK-10 renal
  GI50: 3130 nM
  TGI: 8570 nM
HCC-2998 colon
  GI50: 1910 nM
  TGI: 3480 nM
SK-MEL-28 melanoma
  GI50: 1890 nM
  TGI: 3620 nM
SW-620 colon
  GI50: 1610 nM
  TGI: 3580 nM
HCT-15 colon
  GI50: 1440 nM
  TGI: 3500 nM
EKVX NSCLC
  GI50: 1880 nM
  TGI: 4640 nM
HOP-62 NSCLC
  GI50: 2780 nM
  TGI: 5470 nM
OVCAR-3 ovarian
  GI50: 1470 nM
  TGI: 2920 nM
IGROV1 ovarian
  GI50: 1810 nM
  TGI: 3940 nM
